Source: patent US20060100287A1, “Insulin-like growth factor-1 secretagogue” (priority 2004, published 2006)

Tested on: IGF-1
Test: Test Example 3: action of various capsaicinoids on mouse IGF-1 (test solutions on back skin)
Format: in vivo
[1] = test solution containing 0.01% by mass in ethanol/physiological saline, 0.2 mL/cm^2 on back skin, 30 minutes after application, p<0.01 (FIG. 3, FIG. 4)

COc1cc(CNC(=O)CCCC/C=C/C(C)C)ccc1O [capsaicin, (6E)-N-[(4-hydroxy-3-methoxyphenyl)methyl]-8-methyl-6-nonenamide, reference compound]
amount of IGF-1 in the mouse back skin compared to the base preparation [1]: significantly elevated

COc1cc(COC(=O)CCCC/C=C/C(C)C)ccc1O [capsiate]
amount of IGF-1 in the mouse back skin compared to the base preparation [1]: significantly elevated

COc1cc(CNC(=O)CCCCCCC(C)C)ccc1O [dihydrocapsaicin]
amount of IGF-1 in the mouse back skin compared to the base preparation [1]: significantly elevated

COc1cc(COC(=O)CCCCCCC(C)C)ccc1O [dihydrocapsiate]
amount of IGF-1 in the mouse back skin compared to the base preparation [1]: significantly elevated

CCCCCCCCC(=O)NCc1ccc(O)c(OC)c1 [nonylic vanillylamide]
amount of IGF-1 in the mouse back skin compared to the base preparation (mouse, in vivo): significantly elevated

COc1cc(CNC(=O)CCCCCC(C)C)ccc1O [nordihydrocapsaicin]
amount of IGF-1 in the mouse back skin compared to the base preparation (mouse, in vivo): significantly elevated

COc1cc(COC(=O)CCCCCC(C)C)ccc1O [nordihydrocapsiate]
amount of IGF-1 in the mouse back skin compared to the base preparation [1]: significantly elevated
